# Results reported in ChEMBL document CHEMBL3870329, “Synthesis of peptide nucleic acids (PNA) with a crosslinking agent to RNA and effective inhibition of dicer” (Bioorg Med Chem Lett, 2016).
# Calls of active or inactive are those of the source. No cut-off for these calls is given here.
# Experiments:
# [1] = Binding affinity to 5'-end FAM-tagged GACTCAATCCCAATCTGGTT DNA (unknown origin) assessed as change in melting temperature at 1.5 uM measured after 5 mins by UV spectrophotometry
# [2] = Binding affinity to 5'-end FAM-tagged GACGCAAUCCCAAUCUGGUU RNA (unknown origin) assessed as change in melting temperature at 1.5 uM measured after 5 mins by UV spectrophotometry
# [3] = Binding affinity to 5'-end FAM-tagged GACGCAATCCCAATCTGGTT DNA (unknown origin) assessed as change in melting temperature at 1.5 uM measured after 5 mins by UV spectrophotometry
# [4] = Binding affinity to 5'-end FAM-tagged GACUCAAUCCCAAUCUGGUU RNA (unknown origin) assessed as change in melting temperature at 1.5 uM measured after 5 mins by UV spectrophotometry
# [5] = Binding affinity to 5'-end FAM-tagged GACCCAATCCCAATCTGGTT DNA (unknown origin) assessed as change in melting temperature at 1.5 uM measured after 5 mins by UV spectrophotometry
# [6] = Binding affinity to 5'-end FAM-tagged GACCCAAUCCCAAUCUGGUU RNA (unknown origin) assessed as change in melting temperature at 1.5 uM measured after 5 mins by UV spectrophotometry
# [7] = Binding affinity to 5'-end FAM-tagged GACACAAUCCCAAUCUGGUU RNA (unknown origin) assessed as change in melting temperature at 1.5 uM measured after 5 mins by UV spectrophotometry
# [8] = Binding affinity to 5'-end FAM-tagged GACACAATCCCAATCTGGTT DNA (unknown origin) assessed as change in melting temperature at 1.5 uM measured after 5 mins by UV spectrophotometry
# Nucleic Acid [9] = assay: Binding affinity to synthetic 5'-FAM-labelled pre-miR-122 RNA site1 (unknown origin) assessed as human dicer-mediated digestion of pre-miR-122 RNA preincubated with RNA for 2 days followed by dicer addition measured after 2 hrs by denaturing PAGE analysis; assay type: nucleic-acid assay
# Nucleic Acid [10] = assay: Binding affinity to 5'-end FAM-tagged CACUAUUACCGCAAACUAUC RNA (unknown origin) assessed as induction of crosslinking by measuring heteroduplex formation at 4 uM measured after 24 hrs by bromophenol blue staining-based denaturing PAGE analysis; assay type: nucleic-acid assay
# Nucleic Acid [11] = assay: Binding affinity to synthetic 5'-fluorescein-labelled pre-miR-122 RNA site1 (unknown origin) assessed as heteroduplex formation at 4 uM measured after 48 hrs by non-denaturing PAGE analysis relative to control; assay type: nucleic-acid assay
# Nucleic Acid [12] = assay: Binding affinity to synthetic 5'-FAM-labelled pre-miR-122 RNA site1 (unknown origin) assessed as inhibition of human dicer-mediated digestion of pre-miR-122 RNA preincubated with RNA for 2 days followed by dicer addition measured after 2 hrs by denaturing PAGE analysis relative to control; assay type: nucleic-acid assay; conditions: concentration not given here
# Nucleic Acid [13] = assay: Binding affinity to synthetic 5'-FAM-labelled pre-miR-122 RNA site1 (unknown origin) assessed as heteroduplex formation at 4 uM measured after 2 hrs by denaturing PAGE analysis relative to control; assay type: nucleic-acid assay
# unidentified [14] = assay: Binding affinity to 5'-end FAM-tagged GACCAAUCCCAAUCUGGUU RNA (unknown origin) assessed as melting temperature at 1.5 uM measured after 5 mins by UV spectrophotometry (reference value: 77.1 degC)
# Nucleic Acid [15] = assay: Binding affinity to 5'-end FAM-tagged GACCAACCCCAAUCUGGUU RNA (unknown origin) assessed as induction of crosslinking by measuring heteroduplex formation at 4 uM measured after 24 hrs by bromophenol blue staining-based denaturing PAGE analysis relative to control; assay type: nucleic-acid assay
# Nucleic Acid [16] = assay: Binding affinity to 5'-end FAM-tagged GACCAAGCCCAAUCUGGUU RNA (unknown origin) assessed as induction of crosslinking by measuring heteroduplex formation at 4 uM measured after 24 hrs by bromophenol blue staining-based denaturing PAGE analysis relative to control; assay type: nucleic-acid assay
# Nucleic Acid [17] = assay: Binding affinity to 5'-end FAM-tagged GACCAAACCCAAUCUGGUU RNA (unknown origin) assessed as induction of crosslinking by measuring heteroduplex formation at 4 uM measured after 24 hrs by bromophenol blue staining-based denaturing PAGE analysis relative to control; assay type: nucleic-acid assay
# Nucleic Acid [18] = assay: Binding affinity to 5'-end FAM-tagged GACCAACCCCAATCTGGTT DNA (unknown origin) assessed as induction of crosslinking by measuring heteroduplex formation at 4 uM measured after 24 hrs by bromophenol blue staining-based denaturing PAGE analysis relative to control; assay type: nucleic-acid assay
# Nucleic Acid [19] = assay: Binding affinity to 5'-end FAM-tagged GACCAATCCCAATCTGGTT DNA (unknown origin) assessed as induction of crosslinking by measuring heteroduplex formation at 4 uM measured after 24 hrs by bromophenol blue staining-based denaturing PAGE analysis relative to control; assay type: nucleic-acid assay
# Nucleic Acid [20] = assay: Binding affinity to 5'-end FAM-tagged GACCAAUCCCAAUCUGGUU RNA (unknown origin) assessed as induction of crosslinking by measuring heteroduplex formation at 4 uM measured after 24 hrs by bromophenol blue staining-based denaturing PAGE analysis relative to control; assay type: nucleic-acid assay
# unidentified [21] = assay: Binding affinity to 5'-end FAM-tagged GACCAATCCCAATCTGGTT DNA (unknown origin) assessed as melting temperature at 1.5 uM measured after 5 mins by UV spectrophotometry (reference value: 67.4 degC)
# Nucleic Acid [22] = assay: Binding affinity to 5'-end FAM-tagged GACCAAACCCAATCTGGTT DNA (unknown origin) assessed as induction of crosslinking by measuring heteroduplex formation at 4 uM measured after 24 hrs by bromophenol blue staining-based denaturing PAGE analysis relative to control; assay type: nucleic-acid assay
# Nucleic Acid [23] = assay: Binding affinity to 5'-end FAM-tagged GACCAAGCCCAATCTGGTT DNA (unknown origin) assessed as induction of crosslinking by measuring heteroduplex formation at 4 uM measured after 24 hrs by bromophenol blue staining-based denaturing PAGE analysis relative to control; assay type: nucleic-acid assay
# Nucleic Acid [24] = assay: Binding affinity to synthetic 5'-FAM-labelled pre-miR-122 RNA site3 (unknown origin) assessed as human dicer-mediated digestion of pre-miR-122 RNA preincubated with RNA for 2 days followed by dicer addition measured after 2 hrs by denaturing PAGE analysis; assay type: nucleic-acid assay
# Nucleic Acid [25] = assay: Binding affinity to synthetic 5'-fluorescein-labelled pre-miR-122 RNA site3 (unknown origin) assessed as heteroduplex formation at 4 uM measured after 48 hrs by non-denaturing PAGE analysis relative to control; assay type: nucleic-acid assay
# Nucleic Acid [26] = assay: Binding affinity to 5'-end FAM-tagged GCAAACUAUCAAAUCUGUGU RNA (unknown origin) assessed as induction of crosslinking by measuring heteroduplex formation at 4 uM measured after 24 hrs by bromophenol blue staining-based denaturing PAGE analysis; assay type: nucleic-acid assay
# Nucleic Acid [27] = assay: Binding affinity to synthetic 5'-FAM-labelled pre-miR-122 RNA site3 (unknown origin) assessed as inhibition of human dicer-mediated digestion of pre-miR-122 RNA by measuring heteroduplex formation preincubated with RNA for 2 days followed by dicer addition measured after 2 hrs by denaturing PAGE analysis relative to control; assay type: nucleic-acid assay; conditions: concentration not given here
# Nucleic Acid [28] = assay: Binding affinity to synthetic 5'-FAM-labelled pre-miR-122 RNA site3 (unknown origin) assessed as heteroduplex formation at 4 uM measured after 2 hrs by denaturing PAGE analysis relative to control; assay type: nucleic-acid assay
# Nucleic Acid [29] = assay: Binding affinity to 5'-end FAM-tagged GUGGUAACAGUGUGAGGU RNA (unknown origin) assessed as induction of crosslinking by measuring heteroduplex formation at 4 uM measured after 24 hrs by bromophenol blue staining-based denaturing PAGE analysis; assay type: nucleic-acid assay
# Nucleic Acid [30] = assay: Binding affinity to synthetic 5'-fluorescein-labelled pre-miR-122 RNA site2 (unknown origin) assessed as heteroduplex formation at 4 uM measured after 48 hrs by non-denaturing PAGE analysis relative to control; assay type: nucleic-acid assay
# Nucleic Acid [31] = assay: Binding affinity to synthetic 5'-FAM-labelled pre-miR-122 RNA site2 (unknown origin) assessed as inhibition of human dicer-mediated digestion of pre-miR-122 RNA preincubated with RNA for 2 days followed by dicer addition measured after 2 hrs by denaturing PAGE analysis relative to control; assay type: nucleic-acid assay; conditions: concentration not given here
# Nucleic Acid [32] = assay: Binding affinity to synthetic 5'-FAM-labelled pre-miR-122 RNA site2 (unknown origin) assessed as human dicer-mediated digestion of pre-miR-122 RNA preincubated with RNA for 2 days followed by dicer addition measured after 2 hrs by denaturing PAGE analysis; assay type: nucleic-acid assay
# Nucleic Acid [33] = assay: Binding affinity to synthetic 5'-FAM-labelled pre-miR-122 RNA site2 (unknown origin) assessed as heteroduplex formation at 4 uM measured after 2 hrs by denaturing PAGE analysis relative to control; assay type: nucleic-acid assay
smiles,measurement,setting,value
CSCCc1nc(N)nc2c1ncn2CC(=O)N(CCNC(C)=O)CC(=O)NCCN(CC(=O)NCCN(CC(=O)NCCN(CC(=O)NCCN(CC(=O)NCCN(CC(=O)NCCN(CC(=O)NCCN(CC(=O)NCCN(CC(=O)NCCN(CC(=O)NCCN(CC(=O)NCCN(CC(=O)N[C@@H](CCCNC(=N)N)C(=O)N[C@@H](CCCNC(=N)N)C(=O)NCC(N)=O)C(=O)Cn1cnc2c(=O)[nH]c(N)nc21)C(=O)Cn1cnc2c(N)ncnc21)C(=O)Cn1cc(C)c(=O)[nH]c1=O)C(=O)Cn1cc(C)c(=O)[nH]c1=O)C(=O)Cn1cnc2c(=O)[nH]c(N)nc21)C(=O)Cn1cnc2c(=O)[nH]c(N)nc21)C(=O)Cn1cnc2c(=O)[nH]c(N)nc21)C(=O)Cn1cnc2c(N)ncnc21)C(=O)Cn1cc(C)c(=O)[nH]c1=O)C(=O)Cn1cc(C)c(=O)[nH]c1=O)C(=O)Cn1cnc2c(=O)[nH]c(N)nc21,ΔTm,[1],-1.1 °C
same,ΔTm,[2],-2.1 °C
same,ΔTm,[3],-1.9 °C
same,ΔTm,[4],-2.3 °C
same,ΔTm,[5],-1.7 °C
same,ΔTm,[6],-2.5 °C
same,ΔTm,[7],-4.2 °C
same,ΔTm,[8],-2.7 °C
Cc1cn(CC(=O)N(CCNC(=O)CN(CCNC(=O)CN(CCNC(=O)CN(CCNC(=O)CN(CCNC(=O)CN(CCNC(=O)CN(CCNC(=O)CN(CCN)C(=O)Cn2cnc3c(N)ncnc32)C(=O)Cn2cc(C)c(=O)[nH]c2=O)C(=O)Cn2cnc3c(=O)[nH]c(N)nc32)C(=O)Cn2cnc3c(=O)[nH]c(N)nc32)C(=O)Cn2ccc(N)nc2=O)C(=O)Cn2cnc3c(=O)[nH]c(N)nc32)C(=O)Cn2cc(C)c(=O)[nH]c2=O)CC(=O)NCCN(CC(=O)NCCN(CC(=O)NCCN(CC(=O)NCCN(CC(=O)NCCN(CC(=O)N[C@@H](CCCNC(=N)N)C(=O)O)C(=O)Cn2cnc3c(N)ncnc32)C(=O)Cn2cc(C)c(=O)[nH]c2=O)C(=O)Cn2cnc3c(N)ncnc32)C(=O)Cn2cnc3c(=O)[nH]c(N)nc32)C(=O)Cn2cc(C)c(=O)[nH]c2=O)c(=O)[nH]c1=O,Activity,Nucleic Acid [9],91%
same,Activity,Nucleic Acid [10],Active
same,Activity,Nucleic Acid [11],16%
same,inhibition,Nucleic Acid [12],9%
same,Activity,Nucleic Acid [13],0%
C=Cc1nc(N)nc2c1ncn2CC(=O)N(CCNC(=O)CN(CCNC(=O)CN(CCNC(=O)CN(CCNC(C)=O)C(=O)Cn1cnc2c(=O)[nH]c(N)nc21)C(=O)Cn1cc(C)c(=O)[nH]c1=O)C(=O)Cn1cc(C)c(=O)[nH]c1=O)CC(=O)NCCN(CC(=O)NCCN(CC(=O)NCCN(CC(=O)NCCN(CC(=O)NCCN(CC(=O)NCCN(CC(=O)NCCN(CC(=O)N[C@@H](CCCNC(=N)N)C(=O)N[C@@H](CCCNC(=N)N)C(=O)NCC(N)=O)C(=O)Cn1cnc2c(=O)[nH]c(N)nc21)C(=O)Cn1cnc2c(N)ncnc21)C(=O)Cn1cc(C)c(=O)[nH]c1=O)C(=O)Cn1cc(C)c(=O)[nH]c1=O)C(=O)Cn1cnc2c(=O)[nH]c(N)nc21)C(=O)Cn1cnc2c(=O)[nH]c(N)nc21)C(=O)Cn1cnc2c(=O)[nH]c(N)nc21,Tm,unidentified [14],83 °C
same,Activity,Nucleic Acid [15],0%
same,Activity,Nucleic Acid [16],4%
same,Activity,Nucleic Acid [17],0%
same,Activity,Nucleic Acid [18],1%
same,Activity,Nucleic Acid [19],3%
same,Activity,Nucleic Acid [20],2%
same,Tm,unidentified [21],77.3 °C
same,Activity,Nucleic Acid [22],0%
same,Activity,Nucleic Acid [23],7%
Cc1cn(CC(=O)N(CCNC(=O)CN(CCNC(=O)CN(CCNC(=O)CN(CCNC(=O)CN(CCNC(=O)CN(CCN)C(=O)Cn2cnc3c(N)ncnc32)C(=O)Cn2cc(C)c(=O)[nH]c2=O)C(=O)Cn2cnc3c(N)ncnc32)C(=O)Cn2cnc3c(=O)[nH]c(N)nc32)C(=O)Cn2cc(C)c(=O)[nH]c2=O)CC(=O)NCCN(CC(=O)NCCN(CC(=O)NCCN(CC(=O)NCCN(CC(=O)NCCN(CC(=O)NCCN(CC(=O)NCCN(CC(=O)N[C@@H](CCCNC(=N)N)C(=O)O)C(=O)Cn2ccc(N)nc2=O)C(=O)Cn2cnc3c(N)ncnc32)C(=O)Cn2ccc(N)nc2=O)C(=O)Cn2cnc3c(N)ncnc32)C(=O)Cn2cnc3c(=O)[nH]c(N)nc32)C(=O)Cn2cnc3c(N)ncnc32)C(=O)Cn2cc(C)c(=O)[nH]c2=O)c(=O)[nH]c1=O,Activity,Nucleic Acid [24],53%
same,Activity,Nucleic Acid [25],75%
same,Activity,Nucleic Acid [26],Active
same,inhibition,Nucleic Acid [27],47%
same,Activity,Nucleic Acid [28],0%
Cc1cn(CC(=O)N(CCNC(=O)CN(CCNC(=O)CN(CCNC(=O)CN(CCNC(=O)CN(CCNC(=O)CN(CCNC(=O)CN(CCNC(=O)CN(CCNC(=O)CN(CCNC(=O)CN(CCNC(=O)CN(CCN)C(=O)Cn2cnc3c(N)ncnc32)C(=O)Cn2cc(C)c(=O)[nH]c2=O)C(=O)Cn2cc(C)c(=O)[nH]c2=O)C(=O)Cn2cnc3c(=O)[nH]c(N)nc32)C(=O)Cn2cc(C)c(=O)[nH]c2=O)C(=O)Cn2ccc(N)nc2=O)C(=O)Cn2cnc3c(N)ncnc32)C(=O)Cn2ccc(N)nc2=O)C(=O)Cn2cnc3c(N)ncnc32)C(=O)Cn2ccc(N)nc2=O)CC(=O)NCCN(CC(=O)NCCN(CC(=O)N[C@@H](CCCNC(=N)N)C(=O)O)C(=O)Cn2ccc(N)nc2=O)C(=O)Cn2ccc(N)nc2=O)c(=O)[nH]c1=O,Activity,Nucleic Acid [29],Active
same,Activity,Nucleic Acid [30],28%
same,inhibition,Nucleic Acid [31],22%
same,Activity,Nucleic Acid [32],78%
same,Activity,Nucleic Acid [33],0%
